{
  "source": "paper PMC3393737",
  "about": "(PLoS ONE, 2012)",
  "target": "T1, ABCB6 (ABCB6-flag) (Homo sapiens, UniProt Q9NP58)",
  "T1 construct": "wild-type ABCB6, C-terminal FLAG tag kept; stably expressed (CMV promoter) in K562 cells (whole cells, mitochondria)",
  "T1 sequence (Q9NP58 1-842)": "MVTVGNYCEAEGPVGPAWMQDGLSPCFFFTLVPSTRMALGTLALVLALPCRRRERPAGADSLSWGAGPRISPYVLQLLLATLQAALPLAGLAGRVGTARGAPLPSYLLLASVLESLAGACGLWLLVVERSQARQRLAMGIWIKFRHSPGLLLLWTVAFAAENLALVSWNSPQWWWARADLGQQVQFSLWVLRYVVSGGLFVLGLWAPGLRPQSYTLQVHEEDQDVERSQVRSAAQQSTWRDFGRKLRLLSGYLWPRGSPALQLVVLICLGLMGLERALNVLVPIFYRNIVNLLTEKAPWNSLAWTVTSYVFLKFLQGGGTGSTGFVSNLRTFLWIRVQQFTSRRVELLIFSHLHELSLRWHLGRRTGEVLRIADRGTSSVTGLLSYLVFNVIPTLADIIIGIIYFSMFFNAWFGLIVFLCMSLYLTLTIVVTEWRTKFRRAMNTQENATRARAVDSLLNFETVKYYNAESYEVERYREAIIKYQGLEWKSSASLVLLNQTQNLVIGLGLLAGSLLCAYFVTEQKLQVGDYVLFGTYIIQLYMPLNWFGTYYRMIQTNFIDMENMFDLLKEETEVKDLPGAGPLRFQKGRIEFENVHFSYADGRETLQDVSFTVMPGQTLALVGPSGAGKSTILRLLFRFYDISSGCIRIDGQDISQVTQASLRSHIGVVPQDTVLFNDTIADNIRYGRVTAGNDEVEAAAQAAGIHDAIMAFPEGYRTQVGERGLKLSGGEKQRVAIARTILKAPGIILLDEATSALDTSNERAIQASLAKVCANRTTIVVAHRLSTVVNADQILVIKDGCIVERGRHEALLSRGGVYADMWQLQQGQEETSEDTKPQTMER",
  "test": "displacement of ABCB6 from hemin-agarose (mitochondrial fraction; dose dependent also with purified ABCB6-flag)",
  "assay_type": "binding",
  "note": "Where a name gives a salt, the structure may show the parent alone.",
  "data": [
    {"smiles": "C[C@H]1CC[C@]2(NC1)O[C@H]1C[C@H]3[C@@H]4CC[C@H]5C[C@@H](O[C@@H]6O[C@H](CO)[C@H](O[C@@H]7O[C@H](CO)[C@@H](O)[C@H](O[C@@H]8OC[C@@H](O)[C@H](O)[C@H]8O)[C@H]7O[C@@H]7O[C@H](CO)[C@@H](O)[C@H](O)[C@H]7O)[C@H](O)[C@H]6O)CC[C@]5(C)[C@H]4CC[C@]3(C)[C@H]1[C@@H]2C", "note": "[THC, tomatine hydrochloride]", "values": [
      {"measurement": "inhibition at 5 µM", "value": "> 50", "unit": "%"}
    ]}
  ]
}
